Assay results: US11622942B2, “Benzene-1,3,5-tricarboxamide derived ester lipids and uses thereof” (Ohio State Innovation Foundation, priority 2017, dated 2023)

System: Hep3B cells
Experiment: LLNs-mediated luciferase transfection assay (FLuc mRNA delivery)
Assay type: cell-based, human
Conditions: FLuc mRNA-loaded LLNs, 6 h transfection, normalized to TT3 (FIG. 1)
Procedure: The synthesized compounds were formulated with 1,2-dioleoyl-sn-glycero-3-phosphoethanolamine (DOPE), cholesterol, and mRNA. The formulated nanoparticles were evaluated with a luciferase expression assay.
Benzene-1,3,5-tricarbonyl trichloride (12) was reacted with Boc-protected diamine (13) in order to produce the intermediates (14) (Broaders, K. E. et. al. Chem. Commun. (Cambridge, U. K.) 2011, 47, 665-667). Deprotection of (14) gave compound (11), which underwent reductive amination to afford the desired products compounds #1 to #10 (See Dong, Y. et. al. Proc. Natl. Acad. Sci. U.S.A 2014, 111, 3955-3960). The structures of compounds #1 to #10 were confirmed by ^1H NMR spectroscopy (See FIGS. 12-21) and mass spectrometry (See FIGS. 2-11). […] Meanwhile, particle properties (including size, zeta potential, and entrapment efficiency) are measured using a dynamic light-scattering instrument and a ribogreen assay (Love Kevin, T. et. al. Proc. Nat. Acad. Sci. U.S.A 2010, 107, 1864-1869; Chen, D. et. al. J. Am. Chem. Soc. 2012, 134, 6948-6951).
Next, delivery efficiency and cytotoxicity of compounds #1 to #10 (LLNs-FLuc mRNA) was evaluated in Hep3B cells, a human hepatoma cell line. […]

## CCCCC(CCC)OC(=O)CCCCCCCCN(CCCCCCCCC(=O)OC(CCC)CCCC)CCCNC(=O)c1cc(C(=O)NCCCN(CCCCCCCCC(=O)OC(CCC)CCCC)CCCCCCCCC(=O)OC(CCC)CCCC)cc(C(=O)NCCCN(CCCCCCCCC(=O)OC(CCC)CCCC)CCCCCCCCC(=O)OC(CCC)CCCC)c1 (stereo not shown) [Compound 10]
  expression of the firefly luciferase: highest expression
